The test concerns the target T1, full-length beta-catenin (Axin site) (Homo sapiens, UniProt P35222).
T1 construct: 15 nM full-length beta-catenin, 20 nM FITC labeled peptide in buffer
T1 sequence (P35222 1-781): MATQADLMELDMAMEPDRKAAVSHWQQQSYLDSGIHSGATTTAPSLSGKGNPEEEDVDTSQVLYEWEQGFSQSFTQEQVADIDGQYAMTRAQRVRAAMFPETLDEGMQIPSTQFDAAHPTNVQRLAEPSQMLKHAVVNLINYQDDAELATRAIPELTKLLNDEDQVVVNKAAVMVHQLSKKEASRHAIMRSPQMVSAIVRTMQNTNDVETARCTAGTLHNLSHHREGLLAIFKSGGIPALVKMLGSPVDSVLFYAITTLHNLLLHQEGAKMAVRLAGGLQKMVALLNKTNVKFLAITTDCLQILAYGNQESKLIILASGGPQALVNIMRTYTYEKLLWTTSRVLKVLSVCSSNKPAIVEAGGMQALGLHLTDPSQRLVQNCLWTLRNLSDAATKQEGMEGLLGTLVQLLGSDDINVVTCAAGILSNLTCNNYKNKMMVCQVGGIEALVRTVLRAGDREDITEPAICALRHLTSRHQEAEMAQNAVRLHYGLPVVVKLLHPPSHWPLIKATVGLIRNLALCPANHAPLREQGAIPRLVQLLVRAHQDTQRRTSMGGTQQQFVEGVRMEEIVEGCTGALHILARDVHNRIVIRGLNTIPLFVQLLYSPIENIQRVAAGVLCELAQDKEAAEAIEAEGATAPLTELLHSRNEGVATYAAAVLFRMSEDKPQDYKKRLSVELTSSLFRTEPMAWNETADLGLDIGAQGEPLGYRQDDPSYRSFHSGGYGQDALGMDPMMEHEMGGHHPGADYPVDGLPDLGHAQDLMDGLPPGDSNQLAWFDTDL
Nature of the test: Competition fluorescence polarization assay (Axin site probe). The test is classed as binding. Conditions: competition fluorescence polarization, Table 2; read-out: in vitro FP EC50. Summed up: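 Competition FP: 15 nM full-length β-catenin pre-incubated 5 min with 20 nM FITC-labelled stapled Axin-site peptide, then titrated peptide added (3-fold series from 5 μM) for 15 min in the dark. Buffer 50 mM Tris pH 8.0, 250 mM NaCl, 2% glycerol, 0.5 mM EDTA; duplicate reads.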

Consider `CC[C@H](C)[C@@H]1NC(=O)[C@H](Cc2ccccn2)NC(=O)[C@H](C)NC(=O)[C@H](CC(=O)O)NC(=O)[C@H](CC(C)C)NC(=O)[C@H]([C@@H](C)CC)NC(=O)[C@](C)(NC(=O)[C@H](C)NC(C)=O)CCCCCCC=CCOC(=O)N2CC[C@@](C(=O)N[C@@H](CC3CCCCC3)C(=O)N[C@H](C(=O)N[C@@H](Cc3c[nH]c4ccccc34)C(N)=O)C(C)C)(C2)NC1=O` (single isomer, unassigned) [FP0566c Isomer 1, Ac-A-R8-I-L-D-A-2pyr-I-MB-Cha-V-W-NH2], for which the EC50 is over 5 µM. Take `CCC[C@H](NC(=O)[C@]12CCN(C1)C(=O)OCC=CCCCCCC[C@@](C)(NC(=O)[C@H](C)NC(C)=O)C(=O)N[C@@H]([C@@H](C)CC)C(=O)N[C@@H](CC(C)C)C(=O)N[C@@H](CC(=O)O)C(=O)N[C@@H](C)C(=O)N[C@@H](Cc1ccccn1)C(=O)N[C@@H]([C@@H](C)CC)C(=O)N2)C(=O)N[C@H](C(=O)N[C@@H](Cc1c[nH]c2ccccc12)C(N)=O)C(C)C` (single isomer, unassigned) [FP0567c Isomer 1, Ac-A-R8-I-L-D-A-2pyr-I-MB-Nva-V-W-NH2]: the EC50 was over 5 µM. Then `CCC[C@H](NC(=O)[C@]12CCN(C1)C(=O)OCC=CCCCCCC[C@@](C)(NC(=O)[C@H](C)NC(C)=O)C(=O)N[C@@H]([C@@H](C)CC)C(=O)N[C@@H](CC(C)C)C(=O)N[C@@H](CC(=O)O)C(=O)N[C@@H](C)C(=O)N[C@@H](Cc1ccccn1)C(=O)N[C@@H]([C@@H](C)CC)C(=O)N2)C(=O)N[C@H](C(=O)N[C@@H](Cc1c[nH]c2ccccc12)C(N)=O)C(C)C` (single isomer, unassigned) [FP0567c Isomer 2, Ac-A-R8-I-L-D-A-2pyr-I-MB-Nva-V-W-NH2], with over 5 µM; and `CC[C@H](C)[C@@H]1NC(=O)[C@H](Cc2ccccn2)NC(=O)[C@H](C)NC(=O)[C@H](CC(=O)O)NC(=O)[C@H](CC(C)C)NC(=O)[C@H]([C@@H](C)CC)NC(=O)[C@](C)(NC(=O)[C@H](C)NC(C)=O)CCCCCCC=CCOC(=O)N2CC[C@@](C(=O)N[C@H](C(=O)N[C@H](C(=O)N[C@@H](Cc3c[nH]c4ccccc34)C(N)=O)C(C)C)C(C)(C)C)(C2)NC1=O` (single isomer, unassigned) [FP0568c Isomer 1, Ac-A-R8-I-L-D-A-2pyr-I-MB-tLeu-V-W-NH2], with over 5 µM. Then `CC[C@H](C)[C@@H]1NC(=O)[C@H](Cc2ccccn2)NC(=O)[C@H](C)NC(=O)[C@H](CC(=O)O)NC(=O)[C@H](CC(C)C)NC(=O)[C@H]([C@@H](C)CC)NC(=O)[C@](C)(NC(=O)[C@H](C)NC(C)=O)CCCCCCC=CCOC(=O)N2CC[C@@](C(=O)N[C@H](C(=O)N[C@H](C(=O)N[C@@H](Cc3c[nH]c4ccccc34)C(N)=O)C(C)C)C(C)(C)C)(C2)NC1=O` (single isomer, unassigned) [FP0568c Isomer 2, Ac-A-R8-I-L-D-A-2pyr-I-MB-tLeu-V-W-NH2], with over 5 µM; and `CC[C@H](C)[C@@H]1NC(=O)[C@H](Cc2ccccn2)NC(=O)[C@H](C)NC(=O)[C@H](CC(=O)O)NC(=O)[C@H](CC(C)C)NC(=O)[C@H]([C@@H](C)CC)NC(=O)[C@](C)(NC(=O)[C@H](C)NC(C)=O)CCCCCCC=CCOC(=O)N2CC[C@@](C(=O)N[C@@H](Cc3ccco3)C(=O)N[C@H](C(=O)N[C@@H](Cc3c[nH]c4ccccc34)C(N)=O)C(C)C)(C2)NC1=O` (single isomer, unassigned) [FP0569c Isomer 1, Ac-A-R8-I-L-D-A-2pyr-I-MB-fur-V-W-NH2], with over 5 µM; and `CC[C@H](C)[C@@H]1NC(=O)[C@H](Cc2ccccn2)NC(=O)[C@H](C)NC(=O)[C@H](CC(=O)O)NC(=O)[C@H](CC(C)C)NC(=O)[C@H]([C@@H](C)CC)NC(=O)[C@](C)(NC(=O)[C@H](C)NC(C)=O)CCCCCCC=CCOC(=O)N2CC[C@@](C(=O)N[C@@H](Cc3ccco3)C(=O)N[C@H](C(=O)N[C@@H](Cc3c[nH]c4ccccc34)C(N)=O)C(C)C)(C2)NC1=O` (single isomer, unassigned) [FP0569c Isomer 2, Ac-A-R8-I-L-D-A-2pyr-I-MB-fur-V-W-NH2], with over 5 µM. For `CC[C@H](C)[C@@H]1NC(=O)[C@H](Cc2ccccn2)NC(=O)[C@H](C)NC(=O)[C@H](CC(=O)O)NC(=O)[C@H](CC(C)C)NC(=O)[C@H]([C@@H](C)CC)NC(=O)[C@](C)(NC(=O)[C@H](C)NC(C)=O)CCCCCCC=CCOC(=O)N2CC[C@@](C(=O)NC(C)(C)C(=O)N[C@H](C(=O)N[C@@H](Cc3c[nH]c4ccccc34)C(N)=O)C(C)C)(C2)NC1=O` (single isomer, unassigned) [FP0570c Isomer 1, Ac-A-R8-I-L-D-A-2pyr-I-MB-Aib-V-W-NH2], the EC50 is over 5 µM. Consider `CC[C@H](C)[C@@H]1NC(=O)[C@H](Cc2ccccn2)NC(=O)[C@H](C)NC(=O)[C@H](CC(=O)O)NC(=O)[C@H](CC(C)C)NC(=O)[C@H]([C@@H](C)CC)NC(=O)[C@](C)(NC(=O)[C@H](C)NC(C)=O)CCCCCCC=CCOC(=O)N2CC[C@@](C(=O)NC(C)(C)C(=O)N[C@H](C(=O)N[C@@H](Cc3c[nH]c4ccccc34)C(N)=O)C(C)C)(C2)NC1=O` (single isomer, unassigned) [FP0570c Isomer 2, Ac-A-R8-I-L-D-A-2pyr-I-MB-Aib-V-W-NH2], for which the concentration for a half-maximal effect (EC50) is over 5 µM. For `CC[C@H](C)[C@@H]1NC(=O)[C@H](Cc2ccccn2)NC(=O)[C@H](C)NC(=O)[C@H](CC(=O)O)NC(=O)[C@H](CC(C)C)NC(=O)[C@H]([C@@H](C)CC)NC(=O)[C@](C)(NC(=O)[C@H](C)NC(C)=O)CCCCCCC=CCOC(=O)N2CC[C@@](C(=O)N[C@@H](Cc3cccs3)C(=O)N[C@H](C(=O)N[C@@H](Cc3c[nH]c4ccccc34)C(N)=O)C(C)C)(C2)NC1=O` (single isomer, unassigned) [FP0571c Isomer 1, Ac-A-R8-I-L-D-A-2pyr-I-MB-thi-V-W-NH2], the EC50 is over 5 µM. On to `CC[C@H](C)[C@@H]1NC(=O)[C@H](Cc2ccccn2)NC(=O)[C@H](C)NC(=O)[C@H](CC(=O)O)NC(=O)[C@H](CC(C)C)NC(=O)[C@H]([C@@H](C)CC)NC(=O)[C@](C)(NC(=O)[C@H](C)NC(C)=O)CCCCCCC=CCOC(=O)N2CC[C@@](C(=O)N[C@@H](Cc3cccs3)C(=O)N[C@H](C(=O)N[C@@H](Cc3c[nH]c4ccccc34)C(N)=O)C(C)C)(C2)NC1=O` (single isomer, unassigned) [FP0571c Isomer 2, Ac-A-R8-I-L-D-A-2pyr-I-MB-thi-V-W-NH2], for which the EC50 was over 5 µM. Regarding `CC[C@H](C)[C@@H]1NC(=O)[C@H](Cc2ccccn2)NC(=O)[C@H](C)NC(=O)[C@H](CC(=O)O)NC(=O)[C@H](CC(C)C)NC(=O)[C@H]([C@@H](C)CC)NC(=O)[C@](C)(NC(=O)[C@H](C)NC(C)=O)CCCCCCC=CCOC(=O)N2CC[C@@](C(=O)N[C@@H](Cc3ccccn3)C(=O)N[C@H](C(=O)N[C@@H](Cc3c[nH]c4ccccc34)C(N)=O)C(C)C)(C2)NC1=O` (single isomer, unassigned) [FP0572c Isomer 1, Ac-A-R8-I-L-D-A-2pyr-I-MB-2pyr-V-W-NH2], the EC50 is over 5 µM. For the compound `CC[C@H](C)[C@@H]1NC(=O)[C@H](Cc2ccccn2)NC(=O)[C@H](C)NC(=O)[C@H](CC(=O)O)NC(=O)[C@H](CC(C)C)NC(=O)[C@H]([C@@H](C)CC)NC(=O)[C@](C)(NC(=O)[C@H](C)NC(C)=O)CCCCCCC=CCOC(=O)N2CC[C@@](C(=O)N[C@@H](Cc3cccnc3)C(=O)N[C@H](C(=O)N[C@@H](Cc3c[nH]c4ccccc34)C(N)=O)C(C)C)(C2)NC1=O` (single isomer, unassigned) [FP0573c Isomer 1, Ac-A-R8-I-L-D-A-2pyr-I-MB-3pyr-V-W-NH2], the EC50 is over 5 µM.

Values taken from patent US11198713B2, “Agents modulating beta-catenin functions and methods thereof” (FOG PHARMACEUTICALS, INC., priority 2017, dated 2021).
